Test results: patent US20180092357A1, “SYNERGISTIC PRESERVATIVE COMPOSITIONS” (ISP Investments LLC, priority 2015, published 2018)
Several values for one entry are separate records, joined by “and”; a condition that tells them apart may be missing. Equal values may be shown once.

Key:
Format in all cases: cell-based
E. coli (ATCC 8739) = assay: MIC and synergy test (Kull method); conditions: compound or premix acting alone
Procedure: (§1) The cumulative synergistic activity of propylene carbonate, organic compounds/preservative compounds are performed against selected microbial strains.
(§2) Tryptic Soy Broth (TSB) media was used for bacterial evaluations and Yeast Malt Broth (YMB) for fungal evaluations. The compounds were added to the media and serially diluted. After serially diluting the media, 100 μl of a suspension of the testing bacteria or fungi were added to a final concentration of approximately […]. The inoculated media was then incubated at 32° C. for 2-5 days for bacteria or at 28° C. for 3-7 days for fungi.
(§3) The lowest concentration of each compound or mixture or compounds to inhibit visible growth was taken as the minimum inhibitory concentration (MIC). The MIC was taken as end points of activity. End points for the mixture of compound A (Propylene Carbonate) and compound B (organic compounds/conventional preservative) were then compared with the end points for the pure active ingredient alone.
(§4) Synergism was determined by a commonly used and accepted method described by Kull A. C.; Eisman, P. C.; Sylwestrowicz, H. D. and Mayer, R. L. 1961. Applied Microbiology, 9:538-541 using the ratio determine by:
(§5) • QA is the concentration of compound A in PPM, acting alone, which produced an end point. • Qa is the concentration of compound A in PPM, in the mixture, which produced an end point. • QB is the concentration of compound B in PPM, acting alone, which produced an end point. • Qb is the concentration of compound B in PPM, in the mixture, which produced an end point
(§6) When the sum of Qa/QA+Qb/QB is greater than one, antagonism is indicated. When the sum is equal to one, additive is indicated.
(§7) The results comprise following parameters: 1. Test organism (bacteria or fungi), 2. The end-point activity in % measured by MIC for the compound A alone (QA), for compound A in the mixture (Qa), for compound B alone (QB), for compound B in the mixture (Qb), 3. The ratio of Propylene carbonate or combinations of propylene carbonate and an organic compound (compound A) to organic compound (compound B) in that particular combination and the synergy index (SI) based on the formula SI=Qa/QA+Qb/QB.

S. aureus (ATCC 6538) = assay: MIC and synergy test (Kull method); conditions: compound or premix acting alone
Procedure: as §1, §2, §3, §4, §5, §6, §7

B. cepacia (ATCC 25416) = assay: MIC and synergy test (Kull method); conditions: compound or premix acting alone
Procedure: as §1, §2, §3, §4, §5, §6, §7

[1] = test system: A. brasilensis (ATCC 16404); assay: MIC and synergy test (Kull method); conditions: compound or premix acting alone
Procedure: as §1, §2, §3, §4, §5, §6, §7

[2] = test system: P. aeruginosa (ATCC 9027); assay: MIC and synergy test (Kull method); conditions: compound or premix acting alone
Procedure: as §1, §2, §3, §4, §5, §6, §7

bacteria and fungi = assay: Antimicrobial and antifungal characteristics (MIC), general statement; conditions: alone
C. albicans (ATCC 10231) = assay: MIC and synergy test (Kull method)
Procedure: as §1, §2, §3, §4, §5, §6, §7

Compound | MIC of the compound acting alone (QA, QB) (E. coli (ATCC 8739)) | MIC of the compound acting alone (QA, QB) (S. aureus (ATCC 6538)) | MIC of the compound acting alone (QA, QB) (B. cepacia (ATCC 25416)) | MIC of the compound acting alone (QA, QB) [1] | MIC of the compound acting alone (QA, QB) [2] | antimicrobial and antifungal characteristics (MIC) (bacteria and fungi) | MIC of the compound acting alone (QA, QB) (C. albicans (ATCC 10231))
CC1CCC(C(C)C)C(O)C1 (racemic) [DLM, DL-Menthol] | 1.39% | 0.69% | 0.69% |  |  |  | 
CCCCCCCC(=O)NO [CHA, Capryl Hydroxamic Acid] | 0.031% | 0.125% |  | 0.031% |  |  | 
Cc1cc(O)ccc1C(C)C [DBL, O-cymen-5-ol] | 0.0625% |  |  |  |  |  | 
CCCCCCCCC(O)CO (stereo not shown) [DD] | 0.0625% and 0.0312% | 0.0312% and 0.0156% | 0.0625% | 0.0156% and 0.008% | >2.5% |  | 
CCCCC(O)CO (stereo not shown) [HD, 1,2-hexanediol] | 1.25% | 2.5% | 0.625% | 1.25% | 1.25% |  | 
CCCCCCOCC(O)CO (stereo not shown) [HG, Hexylglycerine] |  |  |  | 0.156% |  |  | 
CCCCCCC(O)CO (stereo not shown) [OD, 1,2 octanediol] |  | 0.625% |  | 0.312% | 0.625% |  | 
CCC(=O)O [PA, Propionic Acid] |  |  | 0.20% | 0.078% |  |  | 
CC1COC(=O)O1 (stereo not shown) [PC, Propylene Carbonate] | 3.12% and 1.56% and 6.25% | 12.5% and 3.12% and 6.25% | 3.12% and 1.56% | 1.56% and 3.12% and 0.78% | 3.12% | no significant antimicrobial and antifungal characteristics | 6.25%
OCCc1ccccc1 [PhA, Phenethyl Alcohol] |  |  | 0.156% |  |  |  | 0.625%
CCCCCCCCCCC=O [UND, Undecanal] |  |  |  | 1.25% |  |  | 
Alkyl Glucoside [AG6206] |  |  |  |  | 3.12% |  | 
